Data taken from the supplement of paper PMC4862054.

Legend:
Details in all cases: incubation time: 72 h
[1] = tested on: CAL-148; test: normalised viability (% of control), CellTiter-Blue; higher = more viable cells (about 100 = DMSO control)
Experimental: (§1)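 DSRT, CellTiter-Blue viability, 72 h incubation. Signal is normalised to DMSO and benzethonium chloride controls. Value is the normalised response at dose 8.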

[2] = tested on: CAL-51; test: as above
Experimental: as §1

[3] = tested on: CAL-85-1; test: as above
Experimental: as §1

[4] = tested on: DU-4475; test: as above
Experimental: as §1

[5] = tested on: HDQ-P1; test: as above
Experimental: as §1

[6] = tested on: MDA-MB-453; test: as above
Experimental: as §1

[7] = tested on: BT-474; test: normalised viability (% of control), CellTiter-Blue; higher = more viable cells (about 100 = DMSO control)
How it was run: (§2)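 Normalised viability is given for a single listed concentration of the series. In 384-well plates, breast cancer cell lines were incubated 72 h with compound, then read with CellTiter-Blue (2 h, 37 °C) at 560/590 nm. Per-plate scaling set vehicle to 100 and a positive kill control to 0, with Z'-factor quality control.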

[8] = tested on: BT-549; test: as above
How it was run: as §2

[9] = tested on: CAL-120; test: as above
How it was run: as §2

[10] = tested on: CAL-148; test: as above; remark: listed apart in the source
How it was run: as §2

[11] = tested on: CAL-51; test: as above; remark: listed apart in the source
How it was run: as §2

[12] = tested on: CAL-85-1; test: as above; remark: listed apart in the source
How it was run: as §2

[13] = tested on: DU-4475; test: as above; remark: listed apart in the source
How it was run: as §2

[14] = tested on: HCC1143; test: as above
How it was run: as §2

[15] = tested on: HCC1599; test: as above
How it was run: as §2

[16] = tested on: HCC1937; test: as above
How it was run: as §2

[17] = tested on: HDQ-P1; test: as above; remark: listed apart in the source
How it was run: as §2

[18] = tested on: Hs578T; test: as above
How it was run: as §2

[19] = tested on: MDA-MB-231; test: as above
How it was run: as §2

[20] = tested on: MDA-MB-436; test: as above
How it was run: as §2

[21] = tested on: MDA-MB-453; test: as above; remark: listed apart in the source
How it was run: as §2

[22] = tested on: MDA-MB-468; test: as above
How it was run: as §2

[23] = tested on: MFM-223; test: as above
How it was run: as §2

[24] = tested on: SK-BR-3; test: as above
How it was run: as §2

[25] = tested on: BT-474; test: drug sensitivity score (DSS), CellTiter-Glo (DSS (AUC-based score)); higher = stronger drug effect (viability inhibition or cytotoxicity); extreme values may be limits of the assay
How it was run: (§3)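 Breast cancer cell lines were seeded in 20 µl suspension into 384-well plates already holding compound and incubated for 72 h. Each compound was tested at 5 concentrations in 10-fold steps across its own 10,000-fold range. Plates were normalised to 0.1 % DMSO and a positive kill control after CellTox Green and then CellTiter-Glo readings. The area under the fitted dose-response curve served as the basis for the drug sensitivity score.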

[26] = tested on: HDQ-P1; test: as above
How it was run: as §3

[27] = tested on: Hs578T; test: as above
How it was run: as §3

[28] = tested on: MCF-10A; test: as above
How it was run: as §3

[29] = tested on: MDA-MB-453; test: as above
How it was run: as §3

[30] = tested on: MDA-MB-468; test: as above
How it was run: as §3

C/C(=C\c1csc(C)n1)[C@@H]1C[C@@H]2O[C@]2(C)CCC[C@H](C)[C@H](O)[C@@H](C)C(=O)C(C)(C)[C@@H](O)CC(=O)O1 [Patupilone]
normalised viability ([1]; 300 nM): 17.6%
normalised viability ([2]; 300 nM): 12.7%
normalised viability ([3]; 300 nM): 26.8%
normalised viability ([4]; 300 nM): 7.32%
normalised viability ([5]; 300 nM): 41%
normalised viability ([6]; 300 nM): 20.4%
normalised viability ([7]; 1 nM): 103%
normalised viability ([8]; 1 nM): 106%
normalised viability ([9]; 1 nM): 109%
normalised viability ([10]; 0.3 nM): 96.3%
normalised viability ([11]; 0.3 nM): 106%
normalised viability ([12]; 0.3 nM): 95.2%
normalised viability ([13]; 0.3 nM): 90.2%
normalised viability ([14]; 1 nM): 91.6%
normalised viability ([15]; 1 nM): 108%
normalised viability ([16]; 1 nM): 79.4%
normalised viability ([17]; 0.3 nM): 107%
normalised viability ([18]; 1 nM): 102%
normalised viability ([19]; 1 nM): 59.6%
normalised viability ([20]; 1 nM): 86.8%
normalised viability ([21]; 0.3 nM): 114%
normalised viability ([22]; 1 nM): 96%
normalised viability ([23]; 1 nM): 105%
normalised viability ([24]; 1 nM): 112%
drug sensitivity score [25]: 5.69
drug sensitivity score [26]: 4.83
drug sensitivity score [27]: 12.7
drug sensitivity score [28]: 8.33
drug sensitivity score [29]: 5.87
drug sensitivity score [30]: 18.2

CN(C)CCN1C(=O)c2cccc3cc(N)cc(c23)C1=O [Amonafide]
normalised viability ([1]; 3000 nM): 32%
normalised viability ([2]; 3000 nM): 55.7%
normalised viability ([3]; 3000 nM): 61.9%
normalised viability ([4]; 3000 nM): 57.9%
normalised viability ([5]; 3000 nM): 79.6%
normalised viability ([6]; 3000 nM): 68.3%
normalised viability ([7]; 10 nM): 114%
normalised viability ([8]; 10 nM): 84.9%
normalised viability ([9]; 10 nM): 82%
normalised viability ([10]; 3 nM): 88.8%
normalised viability ([11]; 3 nM): 112%
normalised viability ([12]; 3 nM): 91.6%
normalised viability ([13]; 3 nM): 100%
normalised viability ([14]; 10 nM): 83.6%
normalised viability ([15]; 10 nM): 98.2%
normalised viability ([16]; 10 nM): 91.8%
normalised viability ([17]; 3 nM): 98.5%
normalised viability ([18]; 10 nM): 113%
normalised viability ([19]; 10 nM): 97.2%
normalised viability ([20]; 10 nM): 111%
normalised viability ([21]; 3 nM): 106%
normalised viability ([22]; 10 nM): 105%
normalised viability ([23]; 10 nM): 92.1%
normalised viability ([24]; 10 nM): 99.9%
drug sensitivity score [25]: 5.06
drug sensitivity score [26]: 0
drug sensitivity score [27]: 2.97
drug sensitivity score [28]: 2.36
drug sensitivity score [29]: 0
drug sensitivity score [30]: 2.59

O=C1NC(=O)[C@@H](c2cn3c4c(cccc24)CCC3)[C@@H]1c1c[nH]c2ccccc12 [Tivantinib]
normalised viability ([1]; 300 nM): 97.9%
normalised viability ([2]; 300 nM): 98.3%
normalised viability ([3]; 300 nM): 68.8%
normalised viability ([4]; 300 nM): 102%
normalised viability ([5]; 300 nM): 90.7%
normalised viability ([6]; 300 nM): 49.5%
normalised viability ([7]; 1 nM): 127%
normalised viability ([8]; 1 nM): 107%
normalised viability ([9]; 1 nM): 93.4%
normalised viability ([10]; 0.3 nM): 97.9%
normalised viability ([11]; 0.3 nM): 104%
normalised viability ([12]; 0.3 nM): 90.2%
normalised viability ([13]; 0.3 nM): 107%
normalised viability ([14]; 1 nM): 90.7%
normalised viability ([15]; 1 nM): 115%
normalised viability ([16]; 1 nM): 67.8%
normalised viability ([17]; 0.3 nM): 104%
normalised viability ([18]; 1 nM): 133%
normalised viability ([19]; 1 nM): 106%
normalised viability ([20]; 1 nM): 97.7%
normalised viability ([21]; 0.3 nM): 122%
normalised viability ([22]; 1 nM): 112%
normalised viability ([23]; 1 nM): 83.8%
normalised viability ([24]; 1 nM): 105%
drug sensitivity score [25]: 0.701
drug sensitivity score [26]: 0
drug sensitivity score [27]: 3.41
drug sensitivity score [28]: 1.72
drug sensitivity score [29]: 4.48
drug sensitivity score [30]: 2.74

CN1CCN(CCOc2cc(OC3CCOCC3)c3c(Nc4c(Cl)ccc5c4OCO5)ncnc3c2)CC1 [Saracatinib]
normalised viability ([1]; 3000 nM): 65.9%
normalised viability ([2]; 3000 nM): 45%
normalised viability ([3]; 3000 nM): 29.1%
normalised viability ([4]; 3000 nM): 120%
normalised viability ([5]; 3000 nM): 20.3%
normalised viability ([6]; 3000 nM): 60.9%
normalised viability ([7]; 10 nM): 100%
normalised viability ([8]; 10 nM): 94.2%
normalised viability ([9]; 10 nM): 87.6%
normalised viability ([10]; 3 nM): 77.1%
normalised viability ([11]; 3 nM): 107%
normalised viability ([12]; 3 nM): 85.5%
normalised viability ([13]; 3 nM): 96.6%
normalised viability ([14]; 10 nM): 88%
normalised viability ([15]; 10 nM): 86.7%
normalised viability ([16]; 10 nM): 107%
normalised viability ([17]; 3 nM): 118%
normalised viability ([18]; 10 nM): 102%
normalised viability ([19]; 10 nM): 80.7%
normalised viability ([20]; 10 nM): 116%
normalised viability ([21]; 3 nM): 119%
normalised viability ([22]; 10 nM): 108%
normalised viability ([23]; 10 nM): 104%
normalised viability ([24]; 10 nM): 99.6%
drug sensitivity score [25]: 6.52
drug sensitivity score [26]: 9.63
drug sensitivity score [27]: 2.32
drug sensitivity score [28]: 13.4
drug sensitivity score [29]: 3.51
drug sensitivity score [30]: 3.3
